Reference: US20120034613A1, “Apparatus and Method for Testing Relationships Between Gene Expression and Physical Appearance of Skin” (NSE Products, Inc., priority 2010, published 2012)

System: EpidermFT™ Skin Model (EFT-400) full thickness skin cultures
Assay: Affymetrix GeneChip HG U133 Plus 2.0 microarray global gene expression, agent-exposed vs untreated skin cultures
Type: cell-based, human
Settings: 0.5%, 24 hr

Compound: OCc1ccccc1O[C@@H]1O[C@H](CO)[C@@H](O)[C@H](O)[C@H]1O [Salicin, 2-(Hydroxymethyl)phenyl β-D-glucospyranoside]
- Direction CYR61 (probe 210764_s_at): up
- Fold change CYR61 (probe 210764_s_at): 2.692
- Direction PLAUR (probe 210845_s_at): up
- Fold change PLAUR (probe 210845_s_at): 2.249
- Direction HGF (probe 210998_s_at): up
- Fold change HGF (probe 210998_s_at): 4.35
- Direction SERPINB4 (probe 211906_s_at): down
- Fold change SERPINB4 (probe 211906_s_at): 5.613
- Direction CAT (probe 211922_s_at): down
- Fold change CAT (probe 211922_s_at): 2.095
- Direction IGFBP5 (probe 211958_at): up
- Fold change IGFBP5 (probe 211958_at): 2.712
- Direction COL4A1 (probe 211981_at): up
- Fold change COL4A1 (probe 211981_at): 2.121
- Direction RHOB (probe 212099_at): up
- Fold change RHOB (probe 212099_at): 3.764
- Direction SGPL1 (probe 212321_at): down
- Fold change SGPL1 (probe 212321_at): 2.406
- Direction SULF1 (probe 212353_at): up
- Fold change SULF1 (probe 212353_at): 4.424
- Direction LCN2 (probe 212531_at): down
- Fold change LCN2 (probe 212531_at): 12.01
- Direction PRKCA (probe 213093_at): up
- Fold change PRKCA (probe 213093_at): 2.125
- Direction STARD13 (probe 213103_at): up
- Fold change STARD13 (probe 213103_at): 2.844
- Direction HSPA6 (probe 213418_at): up
- Fold change HSPA6 (probe 213418_at): 14.24
- Direction MFAP5 (probe 213764_s_at): down
- Fold change MFAP5 (probe 213764_s_at): 2.112
- Direction STARD5 (probe 213820_s_at): down
- Fold change STARD5 (probe 213820_s_at): 3.436
- Direction SST (probe 213921_at): up
- Fold change SST (probe 213921_at): 4.356
- Direction PTGER3 (probe 213933_at): down
- Fold change PTGER3 (probe 213933_at): 13.58
- Direction COL4A6 (probe 213992_at): down
- Fold change COL4A6 (probe 213992_at): 4.8
- Direction S100A8 (probe 214370_at): up
- Fold change S100A8 (probe 214370_at): 2.98
- Direction ELL2 (probe 214446_at): up
- Fold change ELL2 (probe 214446_at): 2.557
- Direction FN1 (probe 214702_at): up
- Fold change FN1 (probe 214702_at): 2.71
- Direction ADAMTS3 (probe 214913_at): up
- Fold change ADAMTS3 (probe 214913_at): 2.145
- Direction SOD2 (probe 215078_at): up
- Fold change SOD2 (probe 215078_at): 5.712
- Direction KLK10 (probe 215808_at): down
- Fold change KLK10 (probe 215808_at): 4.673
- Direction FNDC3A (probe 215910_s_at): up
- Fold change FNDC3A (probe 215910_s_at): 3.663
- Direction TNC (probe 216005_at): up
- Fold change TNC (probe 216005_at): 2.719
- Direction MAP3K4 (probe 216199_s_at): up
- Fold change MAP3K4 (probe 216199_s_at): 2.654
- Direction NR4A2 (probe 216248_s_at): up
- Fold change NR4A2 (probe 216248_s_at): 7.592
- Direction LTB4R (probe 216388_s_at): down
- Fold change LTB4R (probe 216388_s_at): 2.456
- Direction CCL2 (probe 216598_s_at): up
- Fold change CCL2 (probe 216598_s_at): 5.407
- Direction KLK1 (probe 216699_s_at): down
- Fold change KLK1 (probe 216699_s_at): 2.169
- Direction NR4A3 (probe 216979_at): up
- Fold change NR4A3 (probe 216979_at): 7.204
- Direction NAMPT (probe 217738_at): up
- Fold change NAMPT (probe 217738_at): 2.668
- Direction TSPAN13 (probe 217979_at): down
- Fold change TSPAN13 (probe 217979_at): 2.401
- Direction PHLDA1 (probe 217997_at): up
- Fold change PHLDA1 (probe 217997_at): 3.409
- Direction ZC3H12A (probe 218810_at): up
- Fold change ZC3H12A (probe 218810_at): 2.117
- Direction LASS4 (probe 218922_s_at): down
- Fold change LASS4 (probe 218922_s_at): 3.028
- Direction KRT23 (probe 218963_s_at): down
- Fold change KRT23 (probe 218963_s_at): 10.94
- Direction IL20RA (probe 219115_s_at): down
- Fold change IL20RA (probe 219115_s_at): 12.07
- Direction HSPBAP1 (probe 219284_at): up
- Fold change HSPBAP1 (probe 219284_at): 2.08
- Direction MREG (probe 219648_at): down
- Fold change MREG (probe 219648_at): 2.887
- Direction SMPD3 (probe 219695_at): down
- Fold change SMPD3 (probe 219695_at): 13.66
- Direction IL23A (probe 220054_at): up
- Fold change IL23A (probe 220054_at): 2.967
- Direction IL22RA1 (probe 220056_at): down
- Fold change IL22RA1 (probe 220056_at): 2.023
- Direction HYAL4 (probe 220249_at): down
- Fold change HYAL4 (probe 220249_at): 3.117
- Direction CALML5 (probe 220414_at): down
- Fold change CALML5 (probe 220414_at): 8.749
- Direction PSORS1C2 (probe 220635_at): down
- Fold change PSORS1C2 (probe 220635_at): 19.08
- Direction IL19 (probe 220745_at): up
- Fold change IL19 (probe 220745_at): 2.278
- Direction IL1F7 (probe 221470_s_at): down
- Fold change IL1F7 (probe 221470_s_at): 100.5
- Direction GDF15 (probe 221577_x_at): up
- Fold change GDF15 (probe 221577_x_at): 5.573
- Direction HSPB8 (probe 221667_s_at): down
- Fold change HSPB8 (probe 221667_s_at): 4.659
- Direction HMGCS1 (probe 221750_at): down
- Fold change HMGCS1 (probe 221750_at): 2.406
- Direction DNAJC10 (probe 221782_at): up
- Fold change DNAJC10 (probe 221782_at): 2.553
- Direction KLF4 (probe 221841_s_at): down
- Fold change KLF4 (probe 221841_s_at): 2.468
- Direction CLDN1 (probe 222549_at): down
- Fold change CLDN1 (probe 222549_at): 7.758
- Direction HPSE (probe 222881_at): down
- Fold change HPSE (probe 222881_at): 4.194
